# Measured values reported in ChEMBL document CHEMBL3596129, “Osthol and curcumin as inhibitors of human Pgp and multidrug efflux pumps of Staphylococcus aureus: reversing the resistance against frontline antibacterial drugs” (Medchemcomm, 2014).
# What was measured:
# [1] = target: T1, ATP-dependent translocase ABCB1 (Homo sapiens, UniProt P08183); assay: Inhibition of P-gp in human LS180 cells after 90 mins by rhodamine123 cell exclusion method; type: cell-based
# [2] = target: T2, Fluoroquinolone resistance protein (Staphylococcus aureus) (UniProt A0A0C5K5S3); assay: Inhibition of MdeA overexpressed in Staphylococcus aureus Mupr-1 assessed as decrease in mupirocin MIC at 25 uM after 24 hrs by broth checkerboard method relative to control
# T2 sequence (whole entry): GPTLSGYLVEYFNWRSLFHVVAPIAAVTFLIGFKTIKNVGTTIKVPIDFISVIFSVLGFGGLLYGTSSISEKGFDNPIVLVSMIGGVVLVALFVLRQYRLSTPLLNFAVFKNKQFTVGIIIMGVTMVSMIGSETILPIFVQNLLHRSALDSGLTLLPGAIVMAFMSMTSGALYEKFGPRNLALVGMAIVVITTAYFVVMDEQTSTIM
# [3] = target: T3, Quinolone resistance protein NorA (Staphylococcus aureus) (UniProt P0A0J7); assay: Inhibition of NorA overexpressed in Staphylococcus aureus SA1199B assessed as decrease in ciprofloxacin MIC at 25 uM after 24 hrs by broth checkerboard method relative to control
# T3 sequence (whole entry): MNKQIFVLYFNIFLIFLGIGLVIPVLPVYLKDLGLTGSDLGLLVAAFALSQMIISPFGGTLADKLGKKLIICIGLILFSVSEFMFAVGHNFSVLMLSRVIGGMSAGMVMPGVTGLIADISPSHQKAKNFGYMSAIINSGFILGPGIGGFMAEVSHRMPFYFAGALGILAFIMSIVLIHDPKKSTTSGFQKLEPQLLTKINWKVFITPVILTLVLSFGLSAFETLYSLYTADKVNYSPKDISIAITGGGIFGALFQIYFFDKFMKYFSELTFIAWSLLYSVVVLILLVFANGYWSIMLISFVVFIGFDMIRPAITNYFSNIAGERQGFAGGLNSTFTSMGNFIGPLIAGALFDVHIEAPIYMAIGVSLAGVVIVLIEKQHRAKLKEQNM
# [4] = target: T3, Quinolone resistance protein NorA (Staphylococcus aureus); assay: Inhibition of NorA overexpressed in Staphylococcus aureus SA1199B assessed as ciprofloxacin MIC at 25 uM after 24 hrs by broth checkerboard method (reference value: 8 ug/ml)
# Staphylococcus aureus [5] = assay: Inhibition of MsrA overexpressed in Staphylococcus aureus K2191 assessed as decrease in erythromycin MIC at 25 uM after 24 hrs by broth checkerboard method relative to control
# [6] = target: T2, Fluoroquinolone resistance protein (Staphylococcus aureus); assay: Inhibition of MdeA overexpressed in Staphylococcus aureus Mupr-1 assessed as mupirocin MIC at 25 uM after 24 hrs by broth checkerboard method (reference value: 256 ug/ml)
# Staphylococcus aureus [7] = assay: Inhibition of MsrA overexpressed in Staphylococcus aureus K2191 assessed as erythromycin MIC at 25 uM after 24 hrs by broth checkerboard method (reference value: 64 ug/ml)
# Staphylococcus aureus [8] = assay: Inhibition of TetK overexpressed in Staphylococcus aureus K2192 assessed as decrease in tetracycline MIC at 25 uM after 24 hrs by broth checkerboard method relative to control
# [9] = target: T1, ATP-dependent translocase ABCB1; assay: Inhibition of P-gp in human LS180 cells at 50 uM after 90 mins by rhodamine123 cell exclusion method; type: cell-based; conditions: ls180, 1.5 h
# Staphylococcus aureus [10] = assay: Inhibition of TetK overexpressed in Staphylococcus aureus K2192 assessed as tetracycline MIC at 25 uM after 24 hrs by broth checkerboard method (reference value: 32 ug/ml)
# [11] = target: T3, Quinolone resistance protein NorA (Staphylococcus aureus); assay: Inhibition of NorA overexpressed in Staphylococcus aureus SA1199B assessed as ciprofloxacin MIC at 50 uM after 24 hrs by broth checkerboard method (reference value: 8 ug/ml)
# Staphylococcus aureus [12] = assay: Inhibition of MsrA overexpressed in Staphylococcus aureus K2191 assessed as decrease in erythromycin MIC at 50 uM after 24 hrs by broth checkerboard method relative to control
# [13] = target: T2, Fluoroquinolone resistance protein (Staphylococcus aureus); assay: Inhibition of MdeA overexpressed in Staphylococcus aureus Mupr-1 assessed as decrease in mupirocin MIC at 50 uM after 24 hrs by broth checkerboard method relative to control
# Staphylococcus aureus [14] = assay: Inhibition of MsrA overexpressed in Staphylococcus aureus K2191 assessed as erythromycin MIC at 50 uM after 24 hrs by broth checkerboard method (reference value: 64 ug/ml)
# Staphylococcus aureus [15] = assay: Inhibition of TetK overexpressed in Staphylococcus aureus K2192 assessed as decrease in tetracycline MIC at 50 uM after 24 hrs by broth checkerboard method relative to control
# Staphylococcus aureus [16] = assay: Inhibition of TetK overexpressed in Staphylococcus aureus K2192 assessed as tetracycline MIC at 50 uM after 24 hrs by broth checkerboard method (reference value: 32 ug/ml)
# [17] = target: T3, Quinolone resistance protein NorA (Staphylococcus aureus); assay: Inhibition of NorA overexpressed in Staphylococcus aureus SA1199B assessed as decrease in ciprofloxacin MIC at 50 uM after 24 hrs by broth checkerboard method relative to control
# [18] = target: T2, Fluoroquinolone resistance protein (Staphylococcus aureus); assay: Inhibition of MdeA overexpressed in Staphylococcus aureus Mupr-1 assessed as mupirocin MIC at 50 uM after 24 hrs by broth checkerboard method (reference value: 256 ug/ml)
# P-gp [19] = assay: Substrate activity at P-gp in human Caco2 cells assessed as efflux ratio of apparent permeability across basolateral to apical side over apical to basolateral side at 10 uM after 90 mins by HPLC with mass spectrometric method; type: ADME, cell-based; conditions: Caco-2
# P-gp [20] = assay: Substrate activity at P-gp in human Caco2 cells assessed as apparent permeability across basolateral to apical side at 10 uM after 90 mins by HPLC with mass spectrometric method; type: ADME, cell-based; conditions: Caco-2
# CYP3A4 = CYP3A4 (Homo sapiens, UniProt P08684); assay: Inhibition of human CYP3A4 at 10 uM preincubated for 10 mins with cofactor followed by mixture of enzyme-substrate addition by fluorescence assay relative to control; type: ADME
# CYP2D6 = CYP2D6 (Homo sapiens, UniProt P10635); assay: Inhibition of human CYP2D6 at 10 uM preincubated for 10 mins with cofactor followed by mixture of enzyme-substrate addition by fluorescence assay relative to control; type: ADME
# CYP2C9 = CYP2C9 (Homo sapiens, UniProt P11712); assay: Inhibition of human CYP2C9 at 10 uM preincubated for 10 mins with cofactor followed by mixture of enzyme-substrate addition by fluorescence assay relative to control; type: ADME
# [21] = target: T2, Fluoroquinolone resistance protein (Staphylococcus aureus); assay: Inhibition of MdeA overexpressed in Staphylococcus aureus Mupr-1 assessed as mupirocin MIC at 12.5 uM after 24 hrs by broth checkerboard method (reference value: 256 ug/ml)
# Staphylococcus aureus [22] = assay: Inhibition of MsrA overexpressed in Staphylococcus aureus K2191 assessed as decrease in erythromycin MIC at 12.5 uM after 24 hrs by broth checkerboard method relative to control
# [23] = target: T2, Fluoroquinolone resistance protein (Staphylococcus aureus); assay: Inhibition of MdeA overexpressed in Staphylococcus aureus Mupr-1 assessed as decrease in mupirocin MIC at 12.5 uM after 24 hrs by broth checkerboard method relative to control
# Staphylococcus aureus [24] = assay: Inhibition of MsrA overexpressed in Staphylococcus aureus K2191 assessed as erythromycin MIC at 12.5 uM after 24 hrs by broth checkerboard method (reference value: 64 ug/ml)
# Staphylococcus aureus [25] = assay: Inhibition of TetK overexpressed in Staphylococcus aureus K2192 assessed as tetracycline MIC at 12.5 uM after 24 hrs by broth checkerboard method (reference value: 32 ug/ml)
# [26] = target: T3, Quinolone resistance protein NorA (Staphylococcus aureus); assay: Inhibition of NorA overexpressed in Staphylococcus aureus SA1199B assessed as decrease in ciprofloxacin MIC at 12.5 uM after 24 hrs by broth checkerboard method relative to control
# [27] = target: T3, Quinolone resistance protein NorA (Staphylococcus aureus); assay: Inhibition of NorA overexpressed in Staphylococcus aureus SA1199B assessed as ciprofloxacin MIC at 12.5 uM after 24 hrs by broth checkerboard method (reference value: 8 ug/ml)
# Staphylococcus aureus [28] = assay: Inhibition of TetK overexpressed in Staphylococcus aureus K2192 assessed as decrease in tetracycline MIC at 12.5 uM after 24 hrs by broth checkerboard method relative to control
# CYP2D6, sequence (P10635 whole entry): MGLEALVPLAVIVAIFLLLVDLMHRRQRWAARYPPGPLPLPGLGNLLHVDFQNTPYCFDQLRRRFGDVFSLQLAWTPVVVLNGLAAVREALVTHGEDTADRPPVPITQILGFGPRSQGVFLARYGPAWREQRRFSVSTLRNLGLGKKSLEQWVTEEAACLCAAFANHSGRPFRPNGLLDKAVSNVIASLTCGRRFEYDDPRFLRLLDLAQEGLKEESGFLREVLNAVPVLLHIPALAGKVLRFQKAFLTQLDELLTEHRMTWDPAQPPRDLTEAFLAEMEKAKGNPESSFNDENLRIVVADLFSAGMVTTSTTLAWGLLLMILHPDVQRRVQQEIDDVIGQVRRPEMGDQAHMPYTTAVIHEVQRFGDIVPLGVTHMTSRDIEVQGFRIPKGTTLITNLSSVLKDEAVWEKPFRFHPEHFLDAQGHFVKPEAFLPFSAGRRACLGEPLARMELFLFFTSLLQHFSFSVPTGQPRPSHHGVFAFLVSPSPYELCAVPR
# CYP3A4, sequence (P08684 whole entry): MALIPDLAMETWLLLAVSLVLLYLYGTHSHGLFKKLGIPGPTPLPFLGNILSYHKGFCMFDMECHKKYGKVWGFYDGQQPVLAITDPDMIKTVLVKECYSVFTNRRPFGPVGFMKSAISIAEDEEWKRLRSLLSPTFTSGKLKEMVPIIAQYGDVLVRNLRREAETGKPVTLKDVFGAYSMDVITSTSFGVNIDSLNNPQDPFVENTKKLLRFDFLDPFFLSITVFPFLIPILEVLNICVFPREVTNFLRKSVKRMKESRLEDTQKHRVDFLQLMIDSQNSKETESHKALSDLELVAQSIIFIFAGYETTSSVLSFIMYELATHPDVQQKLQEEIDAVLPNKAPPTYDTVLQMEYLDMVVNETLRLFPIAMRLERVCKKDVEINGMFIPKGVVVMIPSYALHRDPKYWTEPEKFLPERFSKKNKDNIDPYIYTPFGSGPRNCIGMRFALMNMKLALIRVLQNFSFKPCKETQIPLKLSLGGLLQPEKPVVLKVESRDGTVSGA
# CYP2C9, sequence (P11712 whole entry): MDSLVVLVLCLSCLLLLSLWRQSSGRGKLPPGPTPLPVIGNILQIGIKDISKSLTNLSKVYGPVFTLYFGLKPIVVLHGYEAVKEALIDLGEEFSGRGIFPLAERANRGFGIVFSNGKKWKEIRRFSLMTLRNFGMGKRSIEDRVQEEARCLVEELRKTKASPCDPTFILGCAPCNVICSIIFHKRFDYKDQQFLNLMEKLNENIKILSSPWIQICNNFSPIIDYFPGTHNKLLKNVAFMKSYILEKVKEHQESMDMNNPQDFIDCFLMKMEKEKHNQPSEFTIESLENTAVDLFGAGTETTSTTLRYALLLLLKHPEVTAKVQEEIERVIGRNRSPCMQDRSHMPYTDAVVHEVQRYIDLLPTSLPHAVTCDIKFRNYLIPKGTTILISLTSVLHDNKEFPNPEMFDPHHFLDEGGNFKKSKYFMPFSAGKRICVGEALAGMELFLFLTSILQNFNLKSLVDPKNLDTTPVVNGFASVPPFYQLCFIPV
SMILES,IC50 [1],fold change (FC) [2],fold change (FC) [3],MIC [4],fold change (FC) (Staphylococcus aureus [5]),MIC [6],MIC (Staphylococcus aureus [7]),fold change (FC) (Staphylococcus aureus [8]),inhibition (INH) [9],MIC (Staphylococcus aureus [10]),also measured
C/C=C(\C)C(=O)OC1c2c(ccc3ccc(=O)oc23)OC(C)(C)C1OC(=O)/C(C)=C/C (stereo not given),16 µM,0,2,4 µg/mL,0,256 µg/mL,64 µg/mL,0,Not Active,32 µg/mL,–
CC(=O)Oc1cc(OC(C)=O)c2ccc(=O)oc2c1CC=C(C)C,44 µM,0,2,4 µg/mL,4,256 µg/mL,16 µg/mL,2,Not Active,16 µg/mL,–
CC(C)=CCc1c(O)cc(O)c2ccc(=O)oc12,–,0,2,4 µg/mL,0,256 µg/mL,64 µg/mL,0,Not Active,32 µg/mL,–
C=CC(C)(C)c1cc2cc3c(cc2oc1=O)OC(C)(C)C=C3,15 µM,0,4,2 µg/mL,0,256 µg/mL,64 µg/mL,2,Not Active,16 µg/mL,–
CCC/C=C1\OC(=O)C2CC3CCC12C1(OC(=O)C2=C1CCCC2)C3CCC (stereo not given),–,–,–,–,–,–,–,–,Not Active,–,MIC [11]: 8 µg/mL; fold change (FC) (Staphylococcus aureus [12]): 0; fold change (FC) [13]: 0; MIC (Staphylococcus aureus [14]): 64 µg/mL; fold change (FC) (Staphylococcus aureus [15]): 0; MIC (Staphylococcus aureus [16]): 32 µg/mL; fold change (FC) [17]: 0; MIC [18]: 256 µg/mL
O=C(/C=C/C=C/c1ccc2c(c1)OCO2)N1CCCCC1,–,0,2,4 µg/mL,0,256 µg/mL,64 µg/mL,0,–,32 µg/mL,–
COc1cc(/C=C/C(=O)CC(=O)/C=C/c2ccc(O)c(OC)c2)ccc1O [CURCUMIN],62 µM,0,8,1 µg/mL,0,256 µg/mL,64 µg/mL,0,Not Active,32 µg/mL,–
C[C@H]1O[C@@H](O[C@H]2[C@@H](O)C[C@H](O[C@H]3[C@@H](O)C[C@H](O[C@H]4CC[C@@]5(C)[C@H](CC[C@@H]6[C@@H]5C[C@@H](O)[C@]5(C)[C@@H](C7=CC(=O)OC7)CC[C@]65O)C4)O[C@@H]3C)O[C@@H]2C)C[C@H](O)[C@@H]1O [DIGOXIN],–,–,–,–,–,–,–,–,–,–,"efflux ratio at 1.5 h, 10 µM (P-gp [19]): 41.5; Papp B→A at 1.5 h, 10 µM (P-gp [20]): 12.4 ×10⁻⁶ cm/s"
CC(=O)N1CCN(c2ccc(OCC3COC(Cn4ccnc4)(c4ccc(Cl)cc4Cl)O3)cc2)CC1 (stereo not given) [KETOCONAZOLE],–,–,–,–,–,–,–,–,–,–,inhibition at 10 µM (CYP3A4): 95.2%
CC(C)=CCc1c(O)ccc2ccc(=O)oc12 [OSTHENOL],–,–,–,–,–,–,–,–,Not Active,–,MIC [11]: 2 µg/mL; fold change (FC) (Staphylococcus aureus [12]): 0; fold change (FC) [13]: 0; MIC (Staphylococcus aureus [14]): 64 µg/mL; fold change (FC) (Staphylococcus aureus [15]): 0; MIC (Staphylococcus aureus [16]): 32 µg/mL; fold change (FC) [17]: 4; MIC [18]: 256 µg/mL
Fc1ccc([C@@H]2CCNC[C@H]2COc2ccc3c(c2)OCO3)cc1 [PAROXETINE],–,–,–,–,–,–,–,–,–,–,inhibition at 10 µM (CYP2D6): 96.5%
CC(C)=CCOc1c2occc2cc2ccc(=O)oc12 [PENTOSALEN],28 µM,2,2,4 µg/mL,0,128 µg/mL,64 µg/mL,0,Not Active,32 µg/mL,–
COc1c2ccoc2c(OCC=C(C)C)c2oc(=O)ccc12 [PHELLOPTERIN],32 µM,0,2,4 µg/mL,2,256 µg/mL,32 µg/mL,0,Not Active,32 µg/mL,–
COc1c(C(=O)/C=C(\O)c2ccccc2)ccc2occc12 [PONGAMOL],88 µM,0,2,4 µg/mL,0,256 µg/mL,64 µg/mL,0,Not Active,32 µg/mL,–
Nc1ccc(S(=O)(=O)Nc2ccnn2-c2ccccc2)cc1 [SULFAPHENAZOLE],–,–,–,–,–,–,–,–,–,–,inhibition at 10 µM (CYP2C9): 93.7%
COc1ccc(-c2cc(=O)c3c(OC)c(OC)c(OC)c(OC)c3o2)cc1 [TANGERETIN],–,–,2,–,–,–,–,–,Not Active,–,MIC [21]: 128 µg/mL; fold change (FC) (Staphylococcus aureus [22]): 2; fold change (FC) [23]: 2; MIC (Staphylococcus aureus [24]): 32 µg/mL; MIC (Staphylococcus aureus [25]): 32 µg/mL; fold change (FC) [26]: 2; MIC [27]: 4 µg/mL; fold change (FC) (Staphylococcus aureus [28]): 0
